Test [1] concerns A-427 lung carcinoma cells [heterozygous G12D]. Kind of test: Cancer cell line proliferation (CellTiter-Glo), A-427. It is filed as cell-based. To be noted: Homo sapiens, A-427 cells, 72 hr treatment, read-out: A427 CTG (EC50). A digest of the protocol: (§1)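 4,000 cells/well; 72 hr pre-culture, 37° C./5% CO2. Cpd: 3-fold series, 20 μM–1.02 nM as prepared, 0.5% DMSO final; 72 hr exposure. Readout CellTiter-Glo; EC50 fit.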

Test [2] concerns ASPC1 pancreatic adenocarcinoma cells [homozygous G12D]. Kind of test: Cancer cell line proliferation (CellTiter-Glo), ASPC1. It is filed as cell-based. To be noted: Homo sapiens, ASPC1, 72 h, 72 hr treatment, read-out: ASPC-1 CTG (EC50). A digest of the protocol: as §1
For test [3], the system named is AGS gastric carcinoma cells [heterozygous G12D]. Kind of test: Cancer cell line proliferation (CellTiter-Glo), AGS. The class given is cell-based. To be noted: Homo sapiens, 72 hr treatment, read-out: AGS CTG (EC50). A digest of the protocol: as §1
In test [4] the test system is SW1990 pancreatic adenocarcinoma cells [homozygous G12D]. Kind of test: Cancer cell line proliferation (CellTiter-Glo), SW1990. It is filed as cell-based. To be noted: Homo sapiens, 72 hr treatment, read-out: SW1990 CTG (EC50). As to the method:
The following cancer cell lines were employed: AGS gastric carcinoma [heterozygous G12D](ATCC, CRL-1739); A-427 lung carcinoma [heterozygous G12D](ATCC, HTB-53); ASPC1 pancreatic adenocarcinoma [homozygous G12D](ATCC, CRL-1682) and SW1990 pancreatic adenocarcinoma [homozygous G12D](ATCC CRL-2172). Cell lines were cultured essentially according to ATCC recommendations.
AGS, A-427, ASPC1, SW1990, and GP2D cells were plated in 96-well tissue culture plates at 4,000 cells/well and incubated at 37° C./5% CO2 for 72 hr in 100 μl of media. 3-fold serial dilutions of each test compound were prepared ranging from 20 μM to 1.02 nM. Each cell line was then treated with test compounds at various concentrations with a final concentration of 0.5% DMSO/well, and then incubated at 37° C./5% CO2 for 72 hr. 100 µl of CellTiter-Glo® Reagent (Promega Corporation, Madison, WI) was added to each well and processed according manufacturer's protocol. Results were analyzed and EC50 values were calculated in GraphPad 7 software.

The target in a further test is T1, KRAS(G12D)/SOS1 (Homo sapiens, UniProt P01116, G12D).
T1 construct: purchased Cisbio 63ADK000CB17PEH
T1 sequence (P01116 1-188 isoform P01116-2 G12D): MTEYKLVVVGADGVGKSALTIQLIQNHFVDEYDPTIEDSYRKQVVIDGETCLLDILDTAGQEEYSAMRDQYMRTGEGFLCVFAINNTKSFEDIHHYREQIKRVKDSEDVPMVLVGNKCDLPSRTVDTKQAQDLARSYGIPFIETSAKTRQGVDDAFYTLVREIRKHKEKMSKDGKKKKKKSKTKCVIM
In words: KRAS(G12D)/SOS1 homogeneous time-resolved fluorescence (HTRF) assay. It is filed as binding. To be noted: absence of GTP; 4° C., 3 hr. A digest of the protocol: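 HTRF kit assay of compound-blocked KRAS(G12D)–SOS1 interaction, run without GTP. Compounds were tested as 3-fold dilutions from 20 µM to 1.02 nM and incubated with the reaction components for 3 hr at 4 °C, sealed. IC50 was taken as the concentration giving 50% of maximal inhibition.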

Each structure is given as a SMILES string.

Turning to `C#Cc1c(F)ccc2cc(O)cc(-c3ncc4c(N5CC6CCC(C5)N6)nc(OCC5(CN6CCN(C7CCN(Cc8ccc(-n9c(C(=O)NC(C)C(F)(F)F)nnc9-c9cc(C(C)C)c(O)cc9O)cc8)CC7)CC6)CC5)nc4c3F)c12` (stereo not shown) [Compound 160], the EC50 in test [1], in test [2], in test [3] and in test [4] was under 100 nM throughout.

In turn, `C#Cc1c(F)ccc2cc(O)cc(-c3ncc4c(N5CC6CCC(C5)N6)nc(OCC5(CN6CCN(CC7CN(Cc8ccc9c(c8)CN(C(=O)c8cc(C(C)C)c(O)cc8O)C9)C7)CC6)CC5)nc4c3F)c12` [Compound 164] yielded an IC50 against KRAS(G12D)/SOS1 of under 100 nM. Also, the values for the EC50 in test [2], in test [3] and in test [4] were 100 to 1000 nM, under 100 nM and under 100 nM, respectively.

`C#Cc1c(F)ccc2cc(O)cc(-c3ncc4c(N5CC6CCC(C5)N6)nc(OCC5(CN6CCN(CC7CN(Cc8ccc(-n9c(C(=O)NCC(F)(F)F)nnc9-c9cc(C(C)C)c(O)cc9O)cc8)C7)CC6)CC5)nc4c3F)c12` [Compound 166]: the IC50 against KRAS(G12D)/SOS1 is under 100 nM. The EC50 in test [2], in test [3] and in test [4] was under 100 nM each time.

Turning to `C#Cc1c(F)ccc2cc(O)cc(-c3ncc4c(N5CC6CCC(C5)N6)nc(OCC5(CN6CCN(CC7CN(Cc8ccc(-n9c(C(=O)NC(C)C(F)(F)F)nnc9-c9cc(C(C)C)c(O)cc9O)cc8)C7)CC6)CC5)nc4c3F)c12` (stereo not shown) [Compound 165], at KRAS(G12D)/SOS1, the IC50 is under 100 nM. Besides, the EC50 in test [2] was 100 to 1000 nM; in test [3] it was under 100 nM; in test [4] it was under 100 nM.

As for `C#Cc1cccc2cc(O)cc(-c3ncc4c(N5CC6CCC(C5)N6)nc(OCC5(CN6CCN(CC7CCN(Cc8ccc9c(c8)CN(C(=O)c8cc(C(C)C)c(O)cc8O)C9)CC7)CC6)CC5)nc4c3F)c12` [Compound 117], the EC50 in test [1] was 100 to 1000 nM; in test [2] it was 100 to 1000 nM; in test [3], under 100 nM; in test [4] it was under 100 nM.

Regarding `C#Cc1c(F)ccc2cc(O)cc(-c3ncc4c(N5CC6CCC(C5)N6)nc(OC5CN(Cc6ccc(-n7c(C(=O)NC(C)C(F)(F)F)nnc7-c7cc(C(C)C)c(O)cc7O)cc6)C5)nc4c3F)c12` (stereo not shown) [Compound 176], the IC50 against KRAS(G12D)/SOS1 lay in the range of 100 to 1000 nM. Also, the EC50 in test [3] is 100 to 1000 nM; in test [4] it was over 1000 nM.

`C#Cc1c(F)ccc2cc(O)cc(-c3ncc4c(N5CC6CCC(C5)N6)nc(OCC5CN(Cc6ccc7c(c6)CN(C(=O)c6cc(C(C)C)c(O)cc6O)C7)C5)nc4c3F)c12` [Compound 172] had an IC50 against KRAS(G12D)/SOS1 of under 100 nM. Also, the EC50 in test [3] and in test [4] was 100 to 1000 nM in each case.

In the case of `CCNC(=O)c1nnc(-c2cc(C(C)C)c(O)cc2O)n1-c1ccc(CN2CCC(CN3CCN([C@H]4C[C@@H](COc5nc(N6CC7CCC(C6)N7)c6cnc(-c7cccc(F)c7C)c(F)c6n5)N(C)C4)CC3)CC2)cc1` [Compound 83], the EC50 in test [1], in test [3] and in test [4] was under 100 nM in each case. Also, the half-inhibitory concentration (IC50) against KRAS(G12D)/SOS1 was over 1000 nM.

`C#Cc1cccc2cc(O)cc(-c3ncc4c(N5CC6CCC(C5)N6)nc(OCC5(CN6CCN(CC7CCN(Cc8ccc(-n9c(C(=O)NCC)nnc9-c9cc(C(C)C)c(O)cc9O)cc8)CC7)CC6)CC5)nc4c3F)c12` [Example 2, 4-(4-{[4-({4-[(1-{[(4-{3,8-diazabicyclo[3.2.1]octan-3-yl}-7-(8-ethynyl-3-hydroxynaphthalen-1-yl)-8-fluoropyrido[4,3-d]pyrimidin-2-yl)oxy]methyl}cyclopropyl)methyl]piperazin-1-yl}methyl)piperidin-1-yl]methyl}phenyl)-5-(2,4-dihydroxy-5-isopropylphenyl)-N-ethyl-1,2,4-triazole-3-carboxamide]: the half-maximal effective concentration (EC50) in test [1], in test [2], in test [3] and in test [4] was under 100 nM throughout.

For the origin of these results see patent publication US20260070929A1, “METHODS AND COMPOSITIONS FOR MODULATING KRAS(G12D)” (Ranok Therapeutics (Hangzhou) Co. LTD., priority 2022, published 2026).
